Source: ChEMBL document CHEMBL4196083, “Discovery of meta-sulfamoyl N-hydroxybenzamides as HDAC8 selective inhibitors” (Eur J Med Chem, 2018)

Experiments:
[1] = target: Histone deacetylase 2 (Homo sapiens, UniProt Q92769); assay: Inhibition of HDAC2 (unknown origin) using Boc-Lys(acetyl)-AMC as substrate preincubated for 5 mins followed by substrate addition measured after 30 mins by fluorescence assay; type: ADME
[2] = target: T1, Protein deacetylase HDAC6 (Homo sapiens, UniProt Q9UBN7); assay: Inhibition of HDAC6 (unknown origin) using Boc-Lys(acetyl)-AMC as substrate preincubated for 5 mins followed by substrate addition measured after 30 mins by fluorescence assay
T1 sequence (Q9UBN7 whole entry): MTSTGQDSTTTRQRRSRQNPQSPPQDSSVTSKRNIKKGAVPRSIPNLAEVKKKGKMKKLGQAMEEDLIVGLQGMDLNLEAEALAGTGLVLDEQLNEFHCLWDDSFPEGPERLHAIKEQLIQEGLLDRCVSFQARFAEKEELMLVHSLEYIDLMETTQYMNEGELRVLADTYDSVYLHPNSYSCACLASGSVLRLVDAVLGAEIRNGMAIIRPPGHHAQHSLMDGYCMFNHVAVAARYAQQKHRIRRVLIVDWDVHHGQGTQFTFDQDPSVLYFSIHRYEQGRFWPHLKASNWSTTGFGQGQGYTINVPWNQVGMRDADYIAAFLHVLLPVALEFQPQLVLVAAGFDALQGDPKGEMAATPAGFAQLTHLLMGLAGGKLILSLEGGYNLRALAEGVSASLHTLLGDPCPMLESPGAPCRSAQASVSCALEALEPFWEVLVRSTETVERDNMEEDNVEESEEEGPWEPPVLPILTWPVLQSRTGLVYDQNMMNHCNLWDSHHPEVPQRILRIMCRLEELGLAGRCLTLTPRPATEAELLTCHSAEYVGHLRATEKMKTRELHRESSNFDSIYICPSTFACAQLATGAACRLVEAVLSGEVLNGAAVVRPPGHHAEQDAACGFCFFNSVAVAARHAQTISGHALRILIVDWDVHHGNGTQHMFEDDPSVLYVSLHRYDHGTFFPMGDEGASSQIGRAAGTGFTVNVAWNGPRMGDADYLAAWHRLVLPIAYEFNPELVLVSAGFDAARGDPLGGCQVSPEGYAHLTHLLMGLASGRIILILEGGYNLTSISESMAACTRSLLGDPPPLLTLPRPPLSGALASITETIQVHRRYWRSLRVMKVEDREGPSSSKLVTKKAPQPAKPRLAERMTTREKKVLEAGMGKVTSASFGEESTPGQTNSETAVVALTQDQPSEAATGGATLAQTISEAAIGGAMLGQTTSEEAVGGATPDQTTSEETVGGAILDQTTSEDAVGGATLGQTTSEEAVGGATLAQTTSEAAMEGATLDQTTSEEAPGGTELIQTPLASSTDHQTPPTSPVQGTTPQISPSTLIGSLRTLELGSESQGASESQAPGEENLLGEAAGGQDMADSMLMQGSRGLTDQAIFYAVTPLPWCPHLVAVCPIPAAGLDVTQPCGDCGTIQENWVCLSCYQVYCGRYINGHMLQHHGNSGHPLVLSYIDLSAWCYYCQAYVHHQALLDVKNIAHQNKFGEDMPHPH

[3] = target: Histone deacetylase (HDAC1 and HDAC2) (Homo sapiens, UniProt Q13547+Q92769); assay: Inhibition of HDAC1/2 in human HeLa nuclear extract using Boc-Lys(acetyl)-AMC as substrate preincubated for 5 mins followed by substrate addition measured after 30 mins by fluorescence assay; type: ADME, protein assay
[4] = target: T2, Histone deacetylase 8 (Homo sapiens, UniProt Q9BY41); assay: Inhibition of HDAC8 (unknown origin) using Boc-Lys(trifluoroacetyl)-AMC as substrate preincubated for 5 mins followed by substrate addition measured after 30 mins by fluorescence assay
T2 sequence (Q9BY41 whole entry): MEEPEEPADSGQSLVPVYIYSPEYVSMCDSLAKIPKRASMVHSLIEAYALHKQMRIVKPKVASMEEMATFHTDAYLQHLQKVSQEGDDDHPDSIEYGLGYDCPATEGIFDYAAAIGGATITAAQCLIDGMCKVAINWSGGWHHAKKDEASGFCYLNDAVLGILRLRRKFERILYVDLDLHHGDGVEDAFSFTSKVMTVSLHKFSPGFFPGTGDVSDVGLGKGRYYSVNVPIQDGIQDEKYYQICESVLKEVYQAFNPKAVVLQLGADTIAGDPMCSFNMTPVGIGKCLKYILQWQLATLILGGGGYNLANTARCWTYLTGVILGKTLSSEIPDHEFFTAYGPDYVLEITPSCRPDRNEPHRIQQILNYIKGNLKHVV

[5] = tested on: HeLa; assay: Antiproliferative activity against human HeLa cells after 48 hrs by MTT assay; type: functional, cell-based
[6] = organism: Homo sapiens; assay: Selectivity ratio of IC50 for HDAC6 (unknown origin) to IC50 for HDAC8 (unknown origin)
[7] = tested on: PC-3; assay: Antiproliferative activity against human PC3 cells after 48 hrs by MTT assay; type: functional, cell-based; conditions: PC-3, 48 h
[8] = tested on: K562; assay: Antiproliferative activity against human K562 cells after 48 hrs by MTT assay; type: functional, cell-based; conditions: K562, 48 h
[9] = tested on: HEL; assay: Antiproliferative activity against human HEL cells after 48 hrs by MTT assay; type: functional, cell-based
[10] = tested on: Jurkat; assay: Antiproliferative activity against human Jurkat cells after 48 hrs by MTT assay; type: functional, cell-based
[11] = organism: Homo sapiens; assay: Selectivity ratio of IC50 for HDAC2 (unknown origin) to IC50 for HDAC8 (unknown origin)
[12] = target: T1, Protein deacetylase HDAC6; assay: Inhibition of HDAC6 in human HeLa cells assessed as increase in acetyl-tubulin level at 2 uM after 12 hrs by Western blot analysis; type: cell-based
[13] = target: Histone deacetylase 1/2/3 (Homo sapiens, UniProt Q13547+O15379+Q92769); assay: Inhibition of HDAC1/2/3 in human HeLa cells assessed as increase in acetyl-histone H4 level at 2 uM after 12 hrs by Western blot analysis
[14] = tested on: MOLT-4; assay: Antiproliferative activity against human MOLT4 cells after 48 hrs by MTT assay; type: functional, cell-based; conditions: MOLT-4, 48 h
[15] = Antiproliferative activity against human SK-N-BE(2) cells after 48 hrs by MTT assay; type: functional, cell-based; conditions: SKNBE2, 48 h

Chain of Histone deacetylase 2 (Q92769 whole entry): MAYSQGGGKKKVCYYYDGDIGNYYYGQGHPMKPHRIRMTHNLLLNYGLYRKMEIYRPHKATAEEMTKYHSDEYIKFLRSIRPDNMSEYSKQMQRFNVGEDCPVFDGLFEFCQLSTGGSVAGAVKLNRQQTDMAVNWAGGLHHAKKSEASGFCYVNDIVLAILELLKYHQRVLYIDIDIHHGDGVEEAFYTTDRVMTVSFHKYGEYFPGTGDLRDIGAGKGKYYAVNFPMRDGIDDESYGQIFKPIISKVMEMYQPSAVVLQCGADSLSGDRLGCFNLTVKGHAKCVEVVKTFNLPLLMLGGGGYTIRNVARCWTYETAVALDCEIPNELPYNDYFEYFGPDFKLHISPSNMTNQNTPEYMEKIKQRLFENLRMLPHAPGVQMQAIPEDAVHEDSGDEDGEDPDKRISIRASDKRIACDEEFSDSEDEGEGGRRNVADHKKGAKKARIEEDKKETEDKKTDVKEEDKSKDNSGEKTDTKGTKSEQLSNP

SMILES | IC50 [1] [µM] | IC50 [2] [µM] | IC50 [3] [µM] | IC50 [4] [µM] | further results
C[C@H](NS(=O)(=O)c1cccc(C(=O)NO)c1)C(=O)Nc1ccccc1 | > 100 | 27.7 | > 20 | 24.2 | 
O=C(NO)c1cccc(S(=O)(=O)N[C@H](C(=O)Nc2ccc(F)cc2)c2ccccc2)c1 |  |  | > 20 |  | 
CC(C)[C@H](NS(=O)(=O)c1cccc(C(=O)NO)c1)C(=O)Nc1ccccc1 | > 100 | 40.5 | > 20 | 33.9 | 
O=C(NO)c1cccc(S(=O)(=O)Nc2ccccc2)c1 | 14.5 | 1.5 | > 20 | 0.05 | IC50 [5]: > 50 µM; Ratio IC50 [6]: 30; IC50 [7]: > 50 µM; IC50 [8]: > 50 µM; IC50 [9]: > 50 µM; IC50 [10]: 28.4 µM; Ratio IC50 [11]: > 180; inhibition (INH) [12]: Not Active; INH [13]: Not Active; IC50 [14]: 22.6 µM
CN1CCc2c(c3ccccc3n2Cc2ccc(C(=O)NO)cc2)C1 [TUBASTATIN A] |  |  |  |  | inhibition (INH) [12]: Active
O=C(NO)c1cccc(S(=O)(=O)NCCc2ccccc2)c1 | 11.2 | 1.8 | > 20 | 0.06 | IC50 [5]: > 50 µM; Ratio IC50 [6]: 30; IC50 [15]: 25.5 µM; IC50 [7]: > 50 µM; IC50 [8]: > 50 µM; IC50 [9]: 32.8 µM; IC50 [10]: 7.9 µM; Ratio IC50 [11]: > 180; inhibition (INH) [12]: Not Active; INH [13]: Not Active; IC50 [14]: 6.2 µM
O=C(CCCCCCC(=O)Nc1ccccc1)NO [VORINOSTAT] |  |  |  |  | inhibition (INH) [12]: Active
O=C(NO)c1cccc(S(=O)(=O)NCc2ccccc2)c1 | 47.1 | 2.6 | > 20 | 0.08 | IC50 [5]: > 50 µM; Ratio IC50 [6]: 30; IC50 [15]: 36.2 µM; IC50 [7]: > 50 µM; IC50 [8]: > 50 µM; IC50 [9]: > 50 µM; IC50 [10]: 12.2 µM; Ratio IC50 [11]: > 180; inhibition (INH) [12]: Not Active; INH [13]: Not Active; IC50 [14]: 11.1 µM
O=C(/C=C/c1cccc(S(=O)(=O)Nc2ccccc2)c1)NO [BELINOSTAT] |  |  |  |  | IC50 [5]: 0.51 µM; IC50 [15]: 0.31 µM; IC50 [9]: 0.1 µM; IC50 [10]: 0.07 µM; IC50 [14]: 0.14 µM
O=C(NO)c1cccc(S(=O)(=O)N[C@H](C(=O)Nc2ccccc2)c2ccccc2)c1 | > 100 | 6.7 | > 20 | 0.91 | 
O=C(NO)c1cccc(S(=O)(=O)N[C@H](C(=O)NCc2ccccc2)c2ccccc2)c1 | > 100 | 34 | > 20 | 9.2 | 
COc1ccc(Cn2ccc3ccc(C(=O)NO)cc32)cc1 |  |  |  |  | IC50 [5]: > 25 µM; IC50 [15]: 16.9 µM; IC50 [7]: 19.2 µM; IC50 [8]: > 25 µM; IC50 [9]: 10.8 µM; IC50 [10]: 4.5 µM; IC50 [14]: 9.4 µM
O=C(CNS(=O)(=O)c1cccc(C(=O)NO)c1)Nc1ccccc1 | > 100 | 14.1 | > 20 | 3.5 | 
COc1ccc(NC(=O)[C@@H](NS(=O)(=O)c2cccc(C(=O)NO)c2)c2ccccc2)cc1 |  |  | > 20 |  | 

The next lines start with results.

IC50 [1] [µM] | IC50 [2] [µM] | IC50 [3] [µM] | IC50 [4] [µM] | SMILES | further results
 |  | > 20 |  | O=C(NO)c1cccc(S(=O)(=O)N[C@H](C(=O)Nc2ccc(Cl)cc2)c2ccccc2)c1 | 
 |  | > 20 |  | O=C(NO)c1cccc(S(=O)(=O)N[C@@H](Cc2c[nH]c3ccccc23)C(=O)Nc2ccc(Cl)cc2)c1 | 
 |  | > 20 |  | O=C(NO)c1cccc(S(=O)(=O)N[C@@H](Cc2c[nH]c3ccccc23)C(=O)Nc2ccc(F)cc2)c1 | 
 |  | > 20 |  | COc1ccc(NC(=O)[C@H](Cc2c[nH]c3ccccc23)NS(=O)(=O)c2cccc(C(=O)NO)c2)cc1 | 
70.4 | 5.9 | > 20 | 3 | O=C(NO)c1cccc(S(=O)(=O)N[C@@H](Cc2c[nH]c3ccccc23)C(=O)Nc2ccccc2)c1 | 
> 100 | 24.5 | > 20 | 19 | O=C(NO)c1cccc(S(=O)(=O)N[C@@H](Cc2c[nH]c3ccccc23)C(=O)NCc2ccccc2)c1 | 
